Read-outs that look alike come from different tables or passages of the source.
How the values were obtained:
[1] = tested on: INS-1 cells; test: Stimulation test of insulin secretion by INS-1 cells; assay type: cell-based; settings: Rattus norvegicus, 1 h incubation, 3.5 mM glucose; for activity at 10 µM: INS1, compound at 10 μM, read-out: INS-1 % of ctrl @ 10 μM; for activity at 50 µM: INS1, compound at 50 μM, read-out: INS-1 % of ctrl @ 50 μM
Protocol: The different compounds were tested on an INS-1 beta-pancreatic line in order to evaluate their capability of potentializing the insulin secretion in response to glucose. Very briefly, the cells are cultivated in a culture medium, RPMI 1640 with 10 mM glucose containing 1 mM of sodium pyruvate, 50 μM of 2-mercaptoethanol, 2 mM of glutamine, 10 mM of HEPES, 100 IU/mL of penicillin, 100 μg/mL of streptomycin and 10% of inactivated fetal calf serum, as described by Asfari et al.. For the insulin secretion test, the INS-1 cells are sown and cultivated in 96-well plates. After 3 days of cultivation at 37° C. in a humid atmosphere (95% air/5% CO2), the medium is removed and the cells are incubated for 16 h in a medium containing 5 mM of glucose and 1% of inactivated fetal calf serum. On the day of the test, the cells are washed with a Krebs buffer (pH 7.4) containing 0.1% of bovine albumin and then pre-incubated for 30 min at 37° C. in this same buffer containing 2.8 mM of glucose. Finally, the cells are again washed with Krebs buffer and then incubated for 1 h in the buffer of the secretion test (Krebs, pH 7.4 containing 0.1% of bovine albumin and 3.5 mM of glucose and molecules to be evaluated). At the end of the test, the cell supernatant is recovered in order to measure therein the secreted insulin, by means of an ELISA kit using a rat anti-insulin antibody (ELISA Alpco Cat no. 80-INSRTH-E10). Each condition is tested in triplicate. The 3.5 mM glucose, the 10^−7M GLP-1 and the Forskoline 10^−7/IBMX 10^−5M mixtures are used as positive controls of the test. A compound stimulates the secretion of insulin if this factor is greater than or equal to 130% of the control for a given glucose dose.

[2] = tested on: hepatocytes isolated from Wistar rat liver; test: Test of inhibition of hepatic production of glucose (isolated hepatocytes, 3 h or 20 h incubation); assay type: cell-based; settings: for activity at 50 µM / activity at 100 µM: Rattus norvegicus, Hepatocyte, hepatic glucose production, rat hepatocytes; for activity at 50 µM: compound at 50 μM, read-out: HGP % of ctrl @ 50 μM; for activity at 100 µM: compound at 100 μM, read-out: HGP % of ctrl @ 100 μM; for inhibition of hepatic production of glucose: with two doses
In short: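 Hepatocytes from 24 h-fasted Wistar rats were cultured overnight in glucose-free RPMI with hydrocortisone (7.10^−5M). Glucose production was run for 3 h in Krebs with lactate/pyruvate plus compounds (0.1% DMSO final), or after an added 20 h pretreatment during the RPMI culture. Supernatant glucose was measured by glucose oxidase and expressed per mg protein (Lowry).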

SMILES	activity at 10 µM [1] [%]	activity at 50 µM [1] [%]	activity at 50 µM ([2]; 3 h, 3 h incubation) [%]	activity at 100 µM ([2]; 3 h, 3 h incubation) [%]	inhibition of hepatic production of glucose ([2]; 20 h incubation)	activity at 50 µM ([2]; 20 h, 20 h incubation) [%]	activity at 100 µM ([2]; 20 h, 20 h incubation) [%]	inhibition of hepatic production of glucose ([2]; 3 h incubation)
O=C(O)Cc1cc(C(=O)C2CCCCC2)sc1-c1ccccc1 [compound 52, 2-(5-(cyclohexanecarbonyl)-2-phenylthiophen-3-yl)acetic acid]	127	140	61	44				
CCOC(=O)Cc1cc(C(=O)c2ccco2)sc1-c1cccc(F)c1F [compound 130, ethyl 2-(2-(2,3-difluorophenyl)-5-(furan-2-carbonyl)thiophen-3-yl)acetate]	179	323			strongest inhibitions	53	40	
CCON=C(c1ccc(OC)cc1)c1cc(CC(=O)O)c(-c2ccc(Cl)cc2)s1 [compound 108, 2-(2-(4-chlorophenyl)-5-((ethoxyimino)(4-methoxyphenyl)methyl)thiophen-3-yl)acetic acid]	135		88	26				
COc1ccc(S(=O)(=O)c2cc(CC(=O)O)c(-c3ccc(Cl)c(Cl)c3)s2)cc1 [compound 175, 2-[2-(3,4-dichlorophenyl)-5-(4-methoxyphenyl)sulfonyl-3-thienyl]acetic acid]	106	145	51	20				strongest inhibitions
CCOC(=O)Cc1cc(C(=NOC)c2ccc(OC)cc2)sc1-c1ccc(Cl)cc1 [compound 106, ethyl 2-(2-(4-chlorophenyl)-5-((methoxyimino)(4-methoxyphenyl)methyl)thiophen-3-yl)acetate]	148	151				74	45	
COC(=O)Cc1cc(C(=O)c2ccccn2)sc1-c1ccc(Cl)cc1 [compound 148]	134	189	80	49				
COc1ccc(C(=O)c2cc(CC(=O)OC(C)(C)C)c(-c3ccc(Cl)cc3)s2)cc1 [compound 84, tert-butyl 2-(2-(4-chlorophenyl)-5-(4-methoxybenzoyl)thiophen-3-yl)acetate]	139	153				85	40	
CCOC(=O)Cc1cc(C(=O)C2CCCCC2)sc1-c1ccc(Cl)cc1 [compound 14, ethyl 2-(2-(4-chlorophenyl)-5-(cyclohexanecarbonyl)thiophen-3-yl)acetate]	152	165	91	73				
CC(C)OC(=O)Cc1cc(C(=O)c2ccco2)sc1-c1ccc(Cl)cc1F [compound 143, isopropyl 2-(2-(4-chloro-2-fluorophenyl)-5-(furan-2-carbonyl)thiophen-3-yl)acetate]	127	233	89	72				
CCOC(=O)Cc1cc(/C(=N/O)c2ccc(OC)cc2)sc1-c1ccc(Cl)cc1 [compound 104, ethyl 2-(2-(4-chlorophenyl)-5-((hydroxyimino)(4-methoxyphenyl)methyl)thiophen-3-yl)acetate]	153	203				76	50	
CC(C)OC(=O)Cc1cc(C(=O)c2ccco2)sc1-c1ccc(Cl)cc1 [compound 44, isopropyl 2-(2-(4-chlorophenyl)-5-(furan-2-carbonyl)thiophen-3-yl)acetate]	180	223	83	69		71	61	
COC(=O)Cc1cc(C(=O)c2ccco2)sc1-c1ccccc1 [compound 3, methyl 2-(5-(furan-2-carbonyl)-2-phenylthiophen-3-yl)acetate]	152	318	82	74				
